Holding throughout (assay type): functional
Assay [1] relates to Plasmodium berghei. Kind of assay: Parasitaemia at day 7 after combination dose at 50 mg/kg/day with 15 mg/kg/day […] over 4 days.
The test system of assay [2] is Plasmodium berghei. Kind of assay: Parasitaemia at day 5 after 50 mg/kg/day dose over 4 days.
For assay [3], the system named is Plasmodium berghei. Nature of the assay: Parasitaemia at day 9 after combination dose at 50 mg/kg/day with 15 mg/kg/day […] over 4 days.
Assay [4] concerns Plasmodium berghei. Nature of the assay: In vivo activity at day 9 against chloroquine-sensitive Plasmodium berghei infected mice (Mus musculus) at 100 mg/kg intraperitoneal dose over 4 days.
Assay [5] relates to Plasmodium berghei. Nature of the assay: Parasitaemia at day 11 after 50 mg/kg/day dose over 4 days.
Assay [6] deals with Plasmodium berghei. Nature of the assay: Parasitemia at day 5 after combination dose at 50 mg/kg/day with 15 mg/kg/day […] over 4 days.
Assay [7] deals with Plasmodium berghei. Nature of the assay: Parasitaemia at day 13 after 50 mg/kg/day dose over 4 days.
For assay [8], the system named is Plasmodium berghei. Kind of assay: In vivo activity at day 5 against chloroquine-sensitive Plasmodium berghei infected mice (Mus musculus) at 100 mg/kg intraperitoneal dose over 4 days.
Assay [9] deals with Plasmodium berghei. Kind of assay: Parasitemia at day 15 after 50 mg/kg/day dose over 4 days.
The test system of assay [10] is Plasmodium berghei. Nature of the assay: Parasitaemia at day 15 after combination dose at 50 mg/kg/day with 15 mg/kg/day […] over 4 days.
The test system of assay [11] is Plasmodium berghei. Nature of the assay: Parasitemia at day 7 after 50 mg/kg/day dose over 4 days.
Assay [12] relates to Plasmodium berghei. Nature of the assay: Parasitemia at day 17 after 50 mg/kg/day dose over 4 days.
Assay [13] relates to Plasmodium berghei. Kind of assay: Parasitaemia at day 17 after combination dose at 50 mg/kg/day with 15 mg/kg/day […] over 4 days.
In assay [14] the test system is Plasmodium berghei. Nature of the assay: Parasitemia at day 13 after combination dose at 50 mg/kg/day with 15 mg/kg/day […] over 4 days.
The test system of assay [15] is Plasmodium berghei. Nature of the assay: In vivo activity at day 7 against chloroquine-sensitive Plasmodium berghei infected mice (Mus musculus) at 100 mg/kg intraperitoneal dose over 4 days.
Assay [16] has as its system Plasmodium berghei. Nature of the assay: Parasitaemia at day 11 after combination dose at 50 mg/kg/day with 15 mg/kg/day […] over 4 days.
For assay [17], the system named is Plasmodium berghei. Nature of the assay: Parasitemia at day 9 after 50 mg/kg/day dose over 4 days.
Assay [18] has as its system Plasmodium berghei. Kind of assay: In vivo activity after 15 days against chloroquine-sensitive Plasmodium berghei infected mice (Mus musculus) at 100 mg/kg intraperitoneal dose over 4 days.
In assay [19] the test system is Plasmodium berghei. Kind of assay: In vivo activity after 11 days against chloroquine-sensitive Plasmodium berghei infected mice (Mus musculus) at 100 mg/kg intraperitoneal dose over 4 days.
The test system of assay [20] is Plasmodium berghei. Nature of the assay: In vivo activity after 13 days against chloroquine-sensitive Plasmodium berghei infected mice (Mus musculus) at 100 mg/kg intraperitoneal dose over 4 days.
For assay [21], the system named is Plasmodium berghei. Kind of assay: Parasitaemia at day 19 after combination dose at 50 mg/kg/day with 15 mg/kg/day […] over 4 days.

On to `COc1ccc(/C=C/C(=O)c2ccc(OCCCOc3ccc(C(=O)/C=C/c4ccc(OC)cc4OC)cc3)cc2)c(OC)c1`, for which the Parasitaemia in the assay with Plasmodium berghei [1] is reported as 2.3%; in the assay on Plasmodium berghei [2], 1.3%; in the assay with Plasmodium berghei [3] it was 3.76%; in the assay with Plasmodium berghei [4], 8%; in the assay on Plasmodium berghei [5], 8.4%; in the assay on Plasmodium berghei [6], 1.2%. Moreover, the Parasitaemia with Plasmodium berghei [7] is reported as 10%; in the assay with Plasmodium berghei [8] it was 3.2%; in the assay on Plasmodium berghei [9], 12.5%; in the assay on Plasmodium berghei [10], 13.7%; in the assay with Plasmodium berghei [11], 2.2%; with Plasmodium berghei [12] it was 16%. Further, the Parasitaemia in the assay with Plasmodium berghei [13] worked out at 18%; in the assay on Plasmodium berghei [14], 9.5%; with Plasmodium berghei [15], 4.7%; with Plasmodium berghei [16], 7.7%; in the assay with Plasmodium berghei [17], 4.8%.

As for `COc1ccc(/C=C/C(=O)c2ccc(OCCCCOc3ccc(C(=O)/C=C/c4ccc(OC)cc4OC)cc3)cc2)c(OC)c1`, the Parasitaemia in the assay with Plasmodium berghei [1] came to 0.6%; with Plasmodium berghei [18] it was 9.5%; with Plasmodium berghei [2], 2.6%; in the assay on Plasmodium berghei [3], 4%; in the assay on Plasmodium berghei [4] it was 2.4%; in the assay on Plasmodium berghei [5], 8%. For the same compound, the Parasitaemia in the assay with Plasmodium berghei [6] came to 0.2%; in the assay with Plasmodium berghei [19], 5.2%; in the assay with Plasmodium berghei [7], 7.2%; in the assay on Plasmodium berghei [8], 1.5%; in the assay on Plasmodium berghei [9] it was 8.3%; with Plasmodium berghei [10], 13%. The Parasitaemia in the assay with Plasmodium berghei [11] is recorded as 3.5%; in the assay on Plasmodium berghei [13] it was 18%; in the assay on Plasmodium berghei [14] it was 7.5%; with Plasmodium berghei [15], 2%; in the assay with Plasmodium berghei [20], 6.6%; in the assay with Plasmodium berghei [16] it was 4.9%. The same compound gave a Parasitaemia in the assay with Plasmodium berghei [17] of 3.4%.

As to `CC(=O)c1ccc(OCCCOc2ccc(C(=O)/C=C/c3ccc4c(c3)OCO4)cc2)cc1`, the Parasitaemia in the assay with Plasmodium berghei [1] turned out to be 0.04%; in the assay with Plasmodium berghei [18], 3.85%; in the assay on Plasmodium berghei [2], 0.7%; in the assay with Plasmodium berghei [3], 1.96%; in the assay with Plasmodium berghei [4] it was 1.7%; in the assay with Plasmodium berghei [5], 6.7%. The Parasitaemia stood at 0% in the assay on Plasmodium berghei [6]; 2.75% in the assay on Plasmodium berghei [19]; 7.8% with Plasmodium berghei [7]; 0% in the assay with Plasmodium berghei [8]; 11.5% in the assay with Plasmodium berghei [9]; 7% in the assay with Plasmodium berghei [10]. Besides, the Parasitaemia in the assay with Plasmodium berghei [11] stood at 1.8%; in the assay on Plasmodium berghei [13], 13%; with Plasmodium berghei [14], 5.1%; in the assay with Plasmodium berghei [15], 0.35%; with Plasmodium berghei [20], 3%; in the assay with Plasmodium berghei [16], 3%. For the same compound, in the assay with Plasmodium berghei [17], the Parasitaemia came out at 2.2%.

Consider `COc1ccc(/C=C/C(=O)c2ccc(OCCCCOc3ccc(C(=O)/C=C/c4ccc(OC)c(OC)c4)cc3)cc2)cc1OC`, for which the Parasitaemia in the assay on Plasmodium berghei [1] was 0.3%; in the assay on Plasmodium berghei [18] it was 2%; in the assay with Plasmodium berghei [2], 1.2%; with Plasmodium berghei [3], 1.8%; in the assay with Plasmodium berghei [4], 0.7%; in the assay on Plasmodium berghei [5] it was 5%. Further, the Parasitaemia in the assay with Plasmodium berghei [6] is reported as 0.002%; with Plasmodium berghei [19], 1%; with Plasmodium berghei [7], 6.9%; in the assay on Plasmodium berghei [8], 0%; in the assay with Plasmodium berghei [9], 13.2%; in the assay with Plasmodium berghei [11], 2.5%. The Parasitaemia with Plasmodium berghei [14] is listed as 7.5%; in the assay with Plasmodium berghei [15] it was 0%; with Plasmodium berghei [20] it was 1.5%; in the assay with Plasmodium berghei [16], 2.7%; with Plasmodium berghei [17] it was 2.5%.

For the compound `COc1cccc(/C=C/C(=O)c2ccc(OCCCOc3ccc(C(=O)/C=C/c4cccc(OC)c4)cc3)cc2)c1`, the Parasitaemia is recorded as 1.1% with Plasmodium berghei [1]; 1.7% in the assay on Plasmodium berghei [18]; 1.75% in the assay with Plasmodium berghei [2]; 3% in the assay on Plasmodium berghei [3]; 1% in the assay with Plasmodium berghei [4]; 13% with Plasmodium berghei [21]. Moreover, the Parasitaemia with Plasmodium berghei [5] turned out to be 4.2%; in the assay on Plasmodium berghei [6], 0.08%; with Plasmodium berghei [19] it was 1.8%; in the assay on Plasmodium berghei [7] it was 5.4%; with Plasmodium berghei [8] it was 0%; with Plasmodium berghei [9], 13%. The Parasitaemia in the assay with Plasmodium berghei [10] is given as 7%; with Plasmodium berghei [11], 1.9%; with Plasmodium berghei [12], 19%; in the assay with Plasmodium berghei [13], 9.5%; in the assay with Plasmodium berghei [14] it was 4.6%; with Plasmodium berghei [15], 0.52%. The Parasitaemia in the assay with Plasmodium berghei [20] turned out to be 1.81%; in the assay on Plasmodium berghei [16] it was 3%; in the assay with Plasmodium berghei [17], 4.2%.

Turning to `COc1ccc(/C=C/C(=O)c2ccc(OCCCCCCOc3ccc(C(=O)/C=C/c4ccc(OC)c(OC)c4)cc3)cc2)cc1OC`, the Parasitaemia in the assay with Plasmodium berghei [1] is recorded as 0.06%; in the assay with Plasmodium berghei [18] it was 4.25%; in the assay on Plasmodium berghei [2] it was 0.8%; with Plasmodium berghei [3] it was 1.8%; in the assay on Plasmodium berghei [4], 1.3%; in the assay on Plasmodium berghei [5], 4.3%. For the same compound, the Parasitaemia in the assay with Plasmodium berghei [6] worked out at 0%; in the assay with Plasmodium berghei [19], 2.1%; in the assay with Plasmodium berghei [7] it was 7.3%; in the assay with Plasmodium berghei [8] it was 0%; in the assay with Plasmodium berghei [9], 15%; in the assay with Plasmodium berghei [10], 7.5%. In addition, the Parasitaemia in the assay with Plasmodium berghei [11] is 1.6%; in the assay on Plasmodium berghei [13], 11%; in the assay with Plasmodium berghei [14], 6%; in the assay with Plasmodium berghei [15] it was 0.16%; with Plasmodium berghei [20] it was 3.1%; in the assay on Plasmodium berghei [16], 2.3%. The same compound registered a Parasitaemia in the assay with Plasmodium berghei [17] of 2%.

`COc1ccc(/C=C/C(=O)c2ccc(OCOc3ccc(C(=O)/C=C/c4ccc(OC)c(OC)c4)cc3)cc2)cc1OC`: the Parasitaemia came out at 0% with Plasmodium berghei [1]; 1.5% with Plasmodium berghei [2]; 0.3% in the assay on Plasmodium berghei [3]; 7.25% with Plasmodium berghei [4]; 22.6% with Plasmodium berghei [21]; 10.2% with Plasmodium berghei [5]. Besides, the Parasitaemia in the assay with Plasmodium berghei [6] is recorded as 0%; with Plasmodium berghei [7], 14.3%; with Plasmodium berghei [8] it was 2.8%; with Plasmodium berghei [10], 4.4%; with Plasmodium berghei [11], 2.3%; in the assay with Plasmodium berghei [13], 11.6%. In addition, the Parasitaemia was 1.4% in the assay with Plasmodium berghei [14], 5.6% in the assay on Plasmodium berghei [15], 0.8% in the assay on Plasmodium berghei [16] and 5.8% in the assay with Plasmodium berghei [17].

The record behind these values is ChEMBL document CHEMBL1132737, “Oxygenated chalcones and bischalcones as potential antimalarial agents” (2000).
